Where a name gives a salt, the structure may show the parent alone.

This note sets out measurements from PMC4060991, “The Human Orphan Nuclear Receptor Tailless (TLX, NR2E1) Is Druggable” (PLoS ONE, 2014).

In the first assay the target is TLX LBD (Homo sapiens, UniProt Q9Y466). The experiment in a line: Differential scanning fluorimetry (DSF) on purified TLX LBD.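 Further: thermal unfolding followed by Sypro-Orange fluorescence (excitation 465 nm, emission 610 nm) in 384-well plates, Tm taken from the first derivative of the denaturation curve, duplicate samples.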 It counts as binding. Also noted: cDNA fragments encoding human TLX LBD (a.a. 187–385) were cloned; His6 followed by TEV protease cleavage site (N); made in house; host or cells: E. coli BL21 (DE3) star. Conditions: compound 500 µM.
TLX LBD, sequence (Q9Y466 187-385): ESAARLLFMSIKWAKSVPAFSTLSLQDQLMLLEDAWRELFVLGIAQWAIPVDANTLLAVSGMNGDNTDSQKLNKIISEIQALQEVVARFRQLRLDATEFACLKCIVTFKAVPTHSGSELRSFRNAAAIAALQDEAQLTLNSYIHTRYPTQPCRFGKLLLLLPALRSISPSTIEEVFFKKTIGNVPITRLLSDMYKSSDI
Procedure: Protein stability was assessed with DSF in absence or presence of test compounds in a LightCycler 480 II qRT-PCR Detection System (Roche) in 384-well format. Sypro-Orange dye (Life Technologies) was used to monitor fluorescence, with filters for fluorescence excitation at 465 nm and for fluorescence emission at 610 nm. […] Each compound was tested in duplicates. The melting temperature (Tm) for each sample was deduced by the ThermoQ Analytical software (HMRI) from the first derivative of the corresponding denaturation curve generated by the LightCycler 480 software. […] All DSF-based analyses were performed using freshly purified protein.
Regarding `CC(=O)OC(C)(C)/C=C/C(=O)[C@](C)(O)[C@H]1[C@H](O)C[C@@]2(C)[C@@H]3CC=C4[C@@H](C[C@H](O)C(=O)C4(C)C)[C@]3(C)C(=O)C[C@]12C` [[(E,6R)-6-[(2S,8S,9R,10R,13R,14S,16R,17R)-2,16-dihydroxy-4,4,9,13,14-pentamethyl-3,11-dioxo-2,7,8,10,12,15,16,17-octahydro-1H-cyclopenta[a]phenanthren-17-yl]-6-hydroxy-2-methyl-5-oxohept-3-en-2-yl] acetate], the “hit in DSF screen (able to bind TLX LBD, Tm shift 0.9°C or more), Table S1” value is reported as “Hits from DSF”.

Take Acetyloxymercury; Phenanthrene: the “hit in DSF screen (able to bind TLX LBD, Tm shift 0.9°C or more), Table S1” value is listed as “Hits from DSF”.

Consider `CCN1CCN(C(=O)Cc2ccc(Nc3ncc(F)c(Nc4ccc(C(=O)Nc5ccccc5Cl)cc4)n3)cc2)CC1` [Aurora A Inhibitor I], for which the “hit in DSF screen (able to bind TLX LBD, Tm shift 0.9°C or more), Table S1” value was “Hits from DSF”.

For the compound `Cc1ccc(S(=O)(=O)c2ccc([N+](=O)[O-])o2)cc1` [2-(4-methylphenyl)sulfonyl-5-nitrofuran], the “hit in DSF screen (able to bind TLX LBD, Tm shift 0.9°C or more), Table S1” value is “Hits from DSF”.

With `Nc1ncnc2c1c(-c1cccc(OCc3ccccc3)c1)cn2C1CC(CN2CCCC2)C1` (stereo not drawn) [NVP-ADW742], the “hit in DSF screen (able to bind TLX LBD, Tm shift 0.9°C or more), Table S1” value was “Hits from DSF”.

As to `O=C(CCc1ccc(O)cc1)c1c(O)cc(O)cc1O` [Phloretin], the “hit in DSF screen (able to bind TLX LBD, Tm shift 0.9°C or more), Table S1” value is on record as “Hits from DSF”.

Consider `CCC[CH2][Pb]([Cl])([CH2]CCC)[CH2]CCC` [Tributyl(chloro)plumbane], for which the “hit in DSF screen (able to bind TLX LBD, Tm shift 0.9°C or more), Table S1” value was “Hits from DSF”.

For the compound `O=C(O)c1ccc(NC(c2ccccc2)c2ccc3cccnc3c2O)cc1` (stereo not drawn) [4-[[(8-hydroxyquinolin-7-yl)-phenylmethyl]amino]benzoic acid], the “hit in DSF screen (able to bind TLX LBD, Tm shift 0.9°C or more), Table S1” value was “Hits from DSF”.

As for `CC(=O)N1CCN(c2ccc(OCC3COC(Cn4ccnc4)(c4ccc(Cl)cc4Cl)O3)cc2)CC1` (stereo not drawn) [Ketoconazole, reference compound], the “hit in DSF screen (able to bind TLX LBD, Tm shift 0.9°C or more), Table S1” value is listed as “Hits from DSF”.

Take `O=C([O][Hg][CH2]C1COC([CH2][Hg][O]C(=O)c2ccccc2)CO1)c1ccccc1` (stereo not drawn) [benzoyloxy-[[5-(benzoyloxymercuriomethyl)-1,4-dioxan-2-yl]methyl]mercury]: the “hit in DSF screen (able to bind TLX LBD, Tm shift 0.9°C or more), Table S1” value is on record as “Hits from DSF”.

In the case of `C[C@@H](NCCCc1cccc(C(F)(F)F)c1)c1cccc2ccccc12` [Cinacalcet hydrochloride, reference compound], the “hit in DSF screen (able to bind TLX LBD, Tm shift 0.9°C or more), Table S1” value is “Hits from DSF”.

Regarding `O=[N+]([O-])c1cc(C(F)(F)F)cc([N+](=O)[O-])c1CCl` [2-(chloromethyl)-1,3-dinitro-5-(trifluoromethyl)benzene], the “hit in DSF screen (able to bind TLX LBD, Tm shift 0.9°C or more), Table S1” value is recorded as “Hits from DSF”.

Consider `N#Cc1c(O)c2c(-c3ccc(-c4ccccc4O)cc3)csc2[nH]c1=O` [6,7-Dihydro-4-hydroxy-3-(2'-hydroxy[1,1'-biphenyl]-4-yl)-6-oxo-thieno[2,3-b]pyridine-5-carbonitrile], for which the “hit in DSF screen (able to bind TLX LBD, Tm shift 0.9°C or more), Table S1” value was “Hits from DSF”.

On to `CCCCCC(CN1CCOCC1)C(=O)C=Cc1ccccc1` (stereo not drawn) [4-(morpholin-4-ylmethyl)-1-phenylnon-1-en-3-one], for which the “hit in DSF screen (able to bind TLX LBD, Tm shift 0.9°C or more), Table S1” value is listed as “Hits from DSF”.

`CC(C)c1cnn2c(NCc3ccccc3)cc(NCCCCCCN)nc12` [N5-(6-Aminohexyl)-3-isopropyl-N7-benzylpyrazolo[1,5-a]pyrimidine-5,7-diamine]: the “hit in DSF screen (able to bind TLX LBD, Tm shift 0.9°C or more), Table S1” value is “Hits from DSF”.

`CO[C@H]1C[C@@H]2CC[C@@H](C)[C@@](O)(O2)C(=O)C(=O)N2CCCC[C@H]2C(=O)O[C@H]([C@H](C)C[C@@H]2CC[C@@H](OCCO)[C@H](OC)C2)CC(=O)[C@H](C)/C=C(\C)[C@@H](O)[C@@H](OC)C(=O)[C@H](C)C[C@H](C)/C=C/C=C/C=C/1C` [Everolimus (RAD001), Everolimus, reference compound]: the “hit in DSF screen (able to bind TLX LBD, Tm shift 0.9°C or more), Table S1” value is “Hits from DSF”.

Turning to `CCC1=C[C@@H]2CN(C1)Cc1c([nH]c3ccccc13)[C@@](C(=O)OC)(c1cc3c(cc1OC)N(C)[C@H]1[C@@](O)(C(=O)OC)[C@H](OC(C)=O)[C@]4(CC)C=CCN5CC[C@]31[C@@H]54)C2` [Vinorelbine, reference compound], the “hit in DSF screen (able to bind TLX LBD, Tm shift 0.9°C or more), Table S1” value is on record as “Hits from DSF”.

Another assay deals with ERβ LBD (Homo sapiens, UniProt Q92731). The experiment in a line: DSF on purified ERβ LBD. The note with it: compound 500 µM; unliganded Tm ∼51°C.
ERβ LBD, sequence (Q92731 261-530): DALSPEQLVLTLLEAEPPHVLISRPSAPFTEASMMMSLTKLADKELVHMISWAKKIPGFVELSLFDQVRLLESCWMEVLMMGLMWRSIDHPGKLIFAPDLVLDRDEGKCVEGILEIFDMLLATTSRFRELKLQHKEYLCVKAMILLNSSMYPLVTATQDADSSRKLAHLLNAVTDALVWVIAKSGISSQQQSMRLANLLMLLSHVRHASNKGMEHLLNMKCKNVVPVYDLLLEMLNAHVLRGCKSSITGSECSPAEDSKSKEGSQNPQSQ
Procedure: Protein stability was assessed with DSF in absence or presence of test compounds in a LightCycler 480 II qRT-PCR Detection System (Roche) in 384-well format. Sypro-Orange dye (Life Technologies) was used to monitor fluorescence, with filters for fluorescence excitation at 465 nm and for fluorescence emission at 610 nm. […] Tested sample mixtures were heated from 25°C to 96°C at a rate of 0.05°C/sec with 11 acquisitions per °C. Each compound was tested in duplicates. The melting temperature (Tm) for each sample was deduced by the ThermoQ Analytical software (HMRI) from the first derivative of the corresponding denaturation curve generated by the LightCycler 480 software. The same protocol was applied to investigate the stability of purified ERβ and LXRβ LBDs in presence or absence of the compounds. The optimal final concentrations for these experiments were 0.02 mg/mL for ERβ LBD and 0.20 mg/mL for LXRβ LBD. All DSF-based analyses were performed using freshly purified protein.
Regarding `C[C@]12CC[C@@H]3c4ccc(O)cc4CC[C@H]3[C@@H]1CC[C@@H]2O` [E2, estradiol], the “melting temperature shift of ERβ LBD” value was “shifted upward”.
